US10398672B2, “Methods and compositions for targeting cancer stem cells” (Whitehead Institute for Biomedical Research, priority 2014, dated 2019)
Read-outs that look alike come from different tables or passages of the source.

Key:
E-cadherin/CDH1 promoter = format: cell-based, human
NAMEC cells [1] = format: cell-based, human
NAMEC cells [2] = format: cell-based, human; remark: listed apart in the source
NAMEC cells [3] = format: cell-based, human; remark: listed apart in the source
NAMEC cells [4] = format: cell-based, human; remark: listed apart in the source
NAMEC cells [5] = format: cell-based, human; conditions: for susceptibility to inhibition by the drug, in contrast to untreated NAMEC cells: NAMEC cells treated with cholera toxin, FIGS. 8A and 8B
NAMEC cells [6] = format: cell-based, human; remark: listed apart in the source
HMLE cells = experiment: Dose response to chemotherapeutic drugs, HMLE cells; format: cell-based, human; conditions: dose response curves FIGS. 8A and 8B
[7] = 5 mg/kg, previously tested in vivo in mice; cited from earlier work
NAMEC cells [8] = experiment: Treatment of NAMEC cells with cAMP analogs (PKA versus EPAC), morphology; format: cell-based, human; conditions: treatment for 12 days, data not shown

cholera toxin
ability to induce luciferase expression (validation of the screen) (E-cadherin/CDH1 promoter): induce luciferase expression
mammosphere-forming ability (NAMEC cells [1]): complete loss
intracellular cAMP concentration in NAMEC cells (NAMEC cells [2]): elevated
cell morphology after treatment (NAMEC cells [3]): cobblestone-like epithelial morphology
cells expressing the SC-like CD44hiCD24lo marker profile reverted to the non-SC CD44loCD24hi profile (NAMEC cells [3]): 95%
junctional E-cadherin by fluorescent microscopy (NAMEC cells [3]): expressed junctional E-cadherin
mesenchymal marker fibronectin by fluorescence microscopy (NAMEC cells [3]): loss of the mesenchymal marker, fibronectin
E-cadherin expression compared to untreated NAMEC cells (NAMEC cells [4]): gain of E-cadherin expression
relative expression of mesenchymal markers compared to untreated NAMEC cells (NAMEC cells [4]): decrease
susceptibility of NAMEC cells to doxorubicin and paclitaxel after induction of MET (NAMEC cells [5]): more susceptible
invasive properties of NAMEC cells (NAMEC cells [6]): loss
migratory properties of NAMEC cells (NAMEC cells [6]): loss

CC(=O)O[C@H]1C(=O)[C@@]2(C)[C@H]([C@H](OC(=O)c3ccccc3)[C@]3(O)C[C@H](OC(=O)[C@H](O)[C@@H](NC(=O)c4ccccc4)c4ccccc4)C(C)=C1C3(C)C)[C@]1(OC(C)=O)CO[C@@H]1C[C@@H]2O [paclitaxel]
susceptibility to inhibition by the drug (HMLE cells): susceptible
susceptibility to inhibition by the drug (NAMEC cells [5]): highly resistant
susceptibility to inhibition by the drug, in contrast to untreated NAMEC cells (NAMEC cells [5]): more susceptible

C=C[C@@]1(C)CC(=O)[C@]2(O)[C@@]3(C)[C@@H](O)CCC(C)(C)[C@@H]3[C@H](O)[C@H](OC(C)=O)[C@@]2(C)O1 [forskolin]
toxicities / side-effects in mice [7]: no reported side-effects
induce transcription of the E-cadherin reporter compared to the control after normalization to cell number (E-cadherin/CDH1 promoter): 40 fold
relative CDH1 Promoter luciferase activity normalized by cells number: differential activity between non-CSCs and CSC (E-cadherin/CDH1 promoter): around 40 fold
cells expressing the SC-like CD44hiCD24lo marker profile reverted to the non-SC CD44loCD24hi profile (NAMEC cells [3]; NAMEC cells, 100 μg/ml cholera toxin or 10 μM forskolin over 12 days, flow cytometry): 95%

COc1cccc2c1C(=O)c1c(O)c3c(c(O)c1C2=O)C[C@@](O)(C(=O)CO)C[C@@H]3O[C@H]1C[C@H](N)[C@H](O)[C@H](C)O1 [doxorubicin]
susceptibility to inhibition by the drug (HMLE cells): susceptible
susceptibility to inhibition by the drug (NAMEC cells [5]): highly resistant
susceptibility to inhibition by the drug, in contrast to untreated NAMEC cells (NAMEC cells [5]): more susceptible

Nc1ncnc2c1nc(Br)n2[C@@H]1O[C@@H]2COP(=O)(O)O[C@H]2[C@H]1O [8-Br-cAMP]
epithelial morphologies displayed by NAMEC cells (NAMEC cells [8]): displayed epithelial morphologies
